We go through 22 molecules from US10800792B2, “Inhibitors of Bruton's tyrosine kinase and method of their use” (JANSSEN PHARMACEUTICA NV, priority 2015, dated 2020).

Sequence of unphosphorylated-BTK kinase domain (UP-BTK), GST-tagged human BTK (389-659aa) (Q06187 389-659): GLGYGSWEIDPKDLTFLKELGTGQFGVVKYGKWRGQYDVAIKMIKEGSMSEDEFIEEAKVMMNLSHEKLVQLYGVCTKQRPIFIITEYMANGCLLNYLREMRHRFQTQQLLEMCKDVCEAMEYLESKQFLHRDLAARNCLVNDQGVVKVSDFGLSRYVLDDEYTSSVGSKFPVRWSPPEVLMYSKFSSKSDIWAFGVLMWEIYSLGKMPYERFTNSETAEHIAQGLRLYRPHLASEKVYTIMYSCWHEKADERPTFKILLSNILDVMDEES

The target in one assay is unphosphorylated-BTK kinase domain (UP-BTK), GST-tagged human BTK (389-659aa) (Homo sapiens (Human), UniProt Q06187). The experiment in a line: BTK kinase Lanthascreen binding assay. As to conditions: Lanthascreen tracer competition, 60 minutes incubation; pIC50 = negative log of the IC50 in molar. The protocol: BTK Kinase Lanthascreen Binding Assay:
A BTK kinase lanthascreen binding assay monitors compound binding to unphosphorylated-BTK kinase domain (UP-BTK), by competing with a fluorescent labeled tracer. […] Data were analyzed using Xlfit™ version 5.3 from ID Business Solutions (Guildford), Microsoft Excel add-in. pIC50 refers to the negative log of the IC50 in molar
(In general: TR-FRET usually uses a lanthanide donor and a delayed reading to cut background.)
As to `Cc1ccc(Oc2ccccc2)cc1N1C(=O)Nc2c(C(=O)N[C@@H]3CCCN(C(=O)/C(C#N)=C/C4CC4)C3)sc3nccc1c23` (racemic) [Example 875, (E)-N-(1-(2-Cyano-3-cyclopropylacryloyl)piperidin-3-yl)-5-(2-methyl-5-phenoxyphenyl)-4-oxo-4,5-dihydro-3H-1-thia-3,5,8-triazaacenaphthylene-2-carboxamide], the “BTK_I_binding pIC50” value was found to be 7.2.

Staying with this assay, now noted: Lanthascreen tracer competition, 60 minutes incubation; pIC50 = negative log of the IC50 in molar; read-out: BTK_I_binding pIC50 (converted).
Turning to `C=CC(=O)N1CCC[C@@H](NC(=O)c2sc3nccc4c3c2NC(=O)N4c2cnc(CC(C)C)cc2C)C1` (mixture of isomers) [Example 671, (R)—N-(1-Acryloylpiperidin-3-yl)-5-(6-isobutyl-4-methylpyridin-3-yl)-4-oxo-4,5-dihydro-3H-1-thia-3,5,8-triazaacenaphthylene-2-carboxamide], the IC50 was 25.1 nM.

Regarding `Cc1cc(Oc2ccccc2)ncc1N1C(=O)Nc2c(C(=O)N[C@@H]3COC[C@@H]3N)sc3nccc1c23` (racemic) [Example 707], the IC50 was 200 nM.

For `O=C(N[C@@H]1CCNC[C@H]1O)c1sc2nccc3c2c1NC(=O)N3c1ccc(Oc2ccccc2)cc1` (relative stereo) [Example 615, N-(trans-3-Hydroxypiperidin-4-yl)-4-oxo-5-(4-phenoxyphenyl)-4,5-dihydro-3H-1-thia-3,5,8-triazaacenaphthylene-2-carboxamide], the IC50 is 794 nM.

Consider `CC(C)(C)OC(=O)N1CC[C@@H](NC(=O)c2sc3nccc4c3c2NC(=O)N4c2ccc(Oc3ccccc3)cc2)[C@H](O)C1` (relative stereo) [Example 617, trans-tert-Butyl 3-hydroxy-4-(4-oxo-5-(4-phenoxyphenyl)-4,5-dihydro-3H-1-thia-3,5,8-triazaacenaphthylene-2-carboxamido)piperidine-1-carboxylate], for which the IC50 was 1000 nM.

As for `O=C(N[C@@H]1CCNC[C@@H]1O)c1sc2nccc3c2c1NC(=O)N3c1ccc(Oc2ccccc2)cc1` (relative stereo) [Example 659, N-(cis-3-Hydroxypiperidin-4-yl)-4-oxo-5-(4-phenoxyphenyl)-4,5-dihydro-3H-1-thia-3,5,8-triazaacenaphthylene-2-carboxamide], the IC50 is 251 nM.

Still in this assay, the particulars now being: pIC50 = negative log of the IC50 in molar; 60 minutes incubation, 50 nM Tracer 236.
For the molecule `Cc1cc(Oc2cccc(COc3ccccc3C#N)c2)ccc1N1C(=O)Nc2c(C(=O)N[C@@H]3CCCN(C)C3)sc3nccc1c23` (mixture of isomers) [Example 24, (R)-5-(4-(3-((2-Cyanophenoxy)methyl)phenoxy)-2-methylphenyl)-N-(1-methylpiperidin-3-yl)-4-oxo-4,5-dihydro-3H-1-thia-3,5,8-triazaacenaphthylene-2-carboxamide], the “BTK_I_binding pIC50” value was found to be 7.7.

In the case of `Cc1cc(Oc2ccccc2)ccc1N1C(=O)Nc2c(C(=O)NC3CC[C@@H](C)N(C)C3)sc3nccc1c23` (mixture of isomers) [Example 92, N-(1,6-Dimethylpiperidin-3-yl)-5-(2-methyl-4-phenoxyphenyl)-4-oxo-4,5-dihydro-3H-1-thia-3,5,8-triazaacenaphthylene-2-carboxamide], the “BTK_I_binding pIC50” value came out at 6.8.

As to `Cc1cc(Oc2ccccc2)ccc1N1C(=O)Nc2c(C(=O)NC3CC[C@H](C)NC3)sc3nccc1c23` (mixture of isomers) [Example 153, 5-(2-Methyl-4-phenoxyphenyl)-N-((6S)-6-methylpiperidin-3-yl)-4-oxo-4,5-dihydro-3H-1-thia-3,5,8-triazaacenaphthylene-2-carboxamide], the “BTK_I_binding pIC50” value was 6.8.

Regarding `CCO/C=C/C(=O)N1CCC[C@@H](NC(=O)c2sc3nccc4c3c2NC(=O)N4c2ccc(Oc3ccccc3)cc2C)C1` (mixture of isomers) [Example 221, (R,E)-N-(1-(3-Ethoxyacryloyl)piperidin-3-yl)-5-(2-methyl-4-phenoxyphenyl)-4-oxo-4,5-dihydro-3H-1-thia-3,5,8-triazaacenaphthylene-2-carboxamide], the “BTK_I_binding pIC50” value is 6.9.

Regarding `COC=C(C#N)C(=O)N1CCC[C@@H](NC(=O)c2sc3nccc4c3c2NC(=O)N4c2ccc(Oc3ccccc3)cc2C)C1` (mixture of isomers) [Example 231, (R,EZ)—N-(1-(2-Cyano-3-methoxyacryloyl)piperidin-3-yl)-5-(2-methyl-4-phenoxyphenyl)-4-oxo-4,5-dihydro-3H-1-thia-3,5,8-triazaacenaphthylene-2-carboxamide], the “BTK_I_binding pIC50” value is recorded as 6.8.

In the case of `COCCNC(C)(C)C=C(C#N)C(=O)N1CCC[C@@H](NC(=O)c2sc3nccc4c3c2NC(=O)N4c2ccc(Oc3ccccc3)cc2C)C1` (mixture of isomers) [Example 234, (R,EZ)—N-(1-(2-Cyano-4-((2-methoxyethyl)amino)-4-methylpent-2-enoyl)piperidin-3-yl)-5-(2-methyl-4-phenoxyphenyl)-4-oxo-4,5-dihydro-3H-1-thia-3,5,8-triazaacenaphthylene-2-carboxamide], the “BTK_I_binding pIC50” value turned out to be 7.2.

For `C=CC(=O)N1C[C@H](O)C[C@@H](NC(=O)c2sc3nccc4c3c2NC(=O)N4c2ccc(Oc3ccccc3)cc2C)C1` (single isomer, unassigned) [Example 2, N-((3R,5S)-1-Acryloyl-5-hydroxypiperidin-3-yl)-5-(*S)-(2-methyl-4-phenoxyphenyl)-4-oxo-4,5-dihydro-3H-1-thia-3,5,8-triazaacenaphthylene-2-carboxamide], the “BTK_I_binding pIC50” value is listed as 8.2.

Still in this assay, the particulars now being: pIC50 = negative log of the IC50 in molar; 60 minutes incubation, 50 nM Tracer 236; read-out: BTK_I_binding pIC50 (converted).
Regarding `CCOC(C)(C)C=C(C#N)C(=O)N1CCC[C@@H](NC(=O)c2sc3nccc4c3c2NC(=O)N4c2ccc(Oc3ccccc3)cc2C)C1` (mixture of isomers) [Example 29, (R,EZ)—N-(1-(2-Cyano-4-ethoxy-4-methylpent-2-enoyl)piperidin-3-yl)-5-(2-methyl-4-phenoxyphenyl)-4-oxo-4,5-dihydro-3H-1-thia-3,5,8-triazaacenaphthylene-2-carboxamide], the IC50 was 50.1 nM.

Regarding `Cc1cc(Oc2ccccc2)ccc1N1C(=O)Nc2c(C(=O)NC3CC[C@@H](C)NC3)sc3nccc1c23` (mixture of isomers) [Example 173, 5-(2-Methyl-4-phenoxyphenyl)-N-((6R)-6-methylpiperidin-3-yl)-4-oxo-4,5-dihydro-3H-1-thia-3,5,8-triazaacenaphthylene-2-carboxamide], the IC50 is 158 nM.

Still in this assay, the particulars now being: unphosphorylated-BTK kinase domain, 50 nM Tracer 236, 60 minutes; pIC50 = negative log of the IC50 in molar.
For the molecule `Cc1cc(Oc2ccccc2)ccc1N1C(=O)Nc2c(C(=O)N[C@@H]3CCCN(C(=O)C(=CC4CC4)C(F)(F)F)C3)sc3nccc1c23` (mixture of isomers) [Example 313, (R,EZ)—N-(1-(3-Cyclopropyl-2-(trifluoromethyl)acryloyl)piperidin-3-yl)-5-(2-methyl-4-phenoxyphenyl)-4-oxo-4,5-dihydro-3H-1-thia-3,5,8-triazaacenaphthylene-2-carboxamide], the “BTK_I_binding pIC50” value was found to be 5.9.

As for `Cc1cc(Oc2ccccc2)ccc1N1C(=O)Nc2c(C(=O)N[C@@H]3CCCN(C(=O)C(Cl)=CC4CC4)C3)sc3nccc1c23` (mixture of isomers) [Example 402, (R,EZ)—N-(1-(2-Chloro-3-cyclopropylacryloyl)piperidin-3-yl)-5-(2-methyl-4-phenoxyphenyl)-4-oxo-4,5-dihydro-3H-1-thia-3,5,8-triazaacenaphthylene-2-carboxamide], the “BTK_I_binding pIC50” value is recorded as 6.5.

As for `CO[C@@H]1CNC[C@H](NC(=O)c2sc3nccc4c3c2NC(=O)N4c2ccc(Oc3ccccc3)cc2C)C1` (relative stereo) [Example 467, N-((3R,5S)-5-Methoxypiperidin-3-yl)-5-(*S)-(2-methyl-4-phenoxyphenyl)-4-oxo-4,5-dihydro-3H-1-thia-3,5,8-triazaacenaphthylene-2-carboxamide], the “BTK_I_binding pIC50” value is reported as 7.0.

On to `CO[C@@H]1CNC[C@H](NC(=O)c2sc3nccc4c3c2NC(=O)N4c2ccc(Oc3ccccc3)cc2C)C1` (relative stereo) [Example 468, N-((3R,5S)-5-Methoxypiperidin-3-yl)-5-(*R)-(2-methyl-4-phenoxyphenyl)-4-oxo-4,5-dihydro-3H-1-thia-3,5,8-triazaacenaphthylene-2-carboxamide], for which the “BTK_I_binding pIC50” value worked out at 5.9.

Regarding `C=CC(=O)N1C[C@@H](O)[C@@H](NC(=O)c2sc3nccc4c3c2NC(=O)N4c2ccc(Oc3ccccc3)cc2C)C1` (relative stereo) [Example 489, N-((3S,4R)-1-Acryloyl-4-hydroxypyrrolidin-3-yl)-5-(*S)-(2-methyl-4-phenoxyphenyl)-4-oxo-4,5-dihydro-3H-1-thia-3,5,8-triazaacenaphthylene-2-carboxamide], the “BTK_I_binding pIC50” value is on record as 7.6.

Consider `C=CC(=O)N1C[C@H](F)C[C@@H](NC(=O)c2sc3nccc4c3c2NC(=O)N4c2ccc(Oc3ccccc3)cc2C)C1` (relative stereo) [Example 499, N-((3R,5R)-1-Acryloyl-5-fluoropiperidin-3-yl)-5-(*S)-(2-methyl-4-phenoxyphenyl)-4-oxo-4,5-dihydro-3H-1-thia-3,5,8-triazaacenaphthylene-2-carboxamide], for which the “BTK_I_binding pIC50” value came to 7.9.

`C=CC(=O)N1C[C@H](NC(=O)c2sc3nccc4c3c2NC(=O)N4c2ccc(Oc3ccccc3)cc2C)[C@@H](O)C1` (relative stereo) [Example 523, N-((3S,4S)-1-Acryloyl-4-hydroxypyrrolidin-3-yl)-5-(*S)-(2-methyl-4-phenoxyphenyl)-4-oxo-4,5-dihydro-3H-1-thia-3,5,8-triazaacenaphthylene-2-carboxamide]: the “BTK_I_binding pIC50” value worked out at 7.5.
